Assay results: patent US8841004B2, “Binaphthyl compound and organic light emitting element using the same” (Canon Kabushiki Kaisha, priority 2007, dated 2014)
Values after ≈ are worked out from the molar mass of the structure shown.

Test: Solubility in chlorobenzene heated at 130° C.
Assay type: physicochemical
Method: Solubility of Example Compound A-02 in chlorobenzene heated at 130° C. was examined.
Comparative Compound H-2 (Comparative Example 2), Comparative Compound H-3 (Comparative Example 3) and Comparative Compound H-5 (Comparative Example 5) were respectively synthesized and solubility in chlorobenzene was examined in the same manner as in Example 1-(C). The results are shown in Table 3 along with those of Examples 1 to 3.

SMILES	Solubility (chlorobenzene, 130° C.)
CC1(C)c2ccccc2-c2ccc(-c3ccc4cc(-c5ccc6cc(-c7ccc8c(c7)C(C)(C)c7ccccc7-8)ccc6c5)ccc4c3)cc21 [Comparative Compound H-2]	3300 µg/mL (≈ 5.17 mM)
CC1(C)c2ccccc2-c2ccc(-c3ccc4cc(-c5ccc6cc(-c7ccc8cc(-c9ccc%10c(c9)C(C)(C)c9ccccc9-%10)ccc8c7)ccc6c5)ccc4c3)cc21 [Comparative Compound H-3]	less than 0.6 g/L

Second part, the compound after the results:

Solubility (chlorobenzene, 130° C.)	SMILES
9400 µg/mL (≈ 11.3 mM)	CC1(C)c2ccccc2-c2ccc(-c3ccc4c(c3)C(C)(C)c3cc(-c5ccc6c(c5)C(C)(C)c5cc(-c7ccc8cc(-c9ccc%10ccccc%10c9)ccc8c7)ccc5-6)ccc3-4)cc21 [Example Compound B-18]
16000 µg/mL (≈ 25 mM)	CC1(C)c2ccccc2-c2ccc(-c3ccc4c(c3)C(C)(C)c3cc(-c5ccc6cc(-c7ccc8ccccc8c7)ccc6c5)ccc3-4)cc21 [Example Compound A-02]
3500 µg/mL (≈ 4.21 mM)	CC1(C)c2cc(-c3ccc4c(c3)C(C)(C)c3cc(-c5ccc6ccccc6c5)ccc3-4)ccc2-c2ccc(-c3ccc4c(c3)C(C)(C)c3cc(-c5ccc6ccccc6c5)ccc3-4)cc21 [Comparative Compound H-5]
